Experimental findings from patent US20140206682A1, “COMPOUNDS AND COMPOSITIONS AS PDGFR KINASE INHIBITORS” (NOVARTIS PHARMACEUTICALS UK LIMITED, priority 2011, published 2014) are described below.

In the first experiment the test system is PDGFR. As to the kind of experiment: Rat A10 cell proliferation assay. Format: cell-based. The note with it: Table 1; Rat A10 cells, recombinant rat PDGF-BB, CellTiter-Glo after 68 hours. The protocol:
Compounds of Formula (I) provided herein were assayed to measure their capacity to inhibit c-kit and PDGFR kinases using the appropriate assay described below: c-Kit inhibition was evaluated using the Mo7e cell proliferation assay, and PDGFR inhibition was evaluated using the Rat A10 cell proliferation assay and the Human TG/HA-VSMC cell proliferation assay.
Rat A10 cells (ATCC) were resuspended in DMEM supplemented with 1% FBS and 10 ng/mL recombinant rat PDGF-BB at 20,000 cells/mL. The cells were aliquoted into 384 well plates at 50 μL/well and incubated for 4 hours at 37° C. 0.5 μL of test compound 3-fold serially diluted in DMSO was added to each well. The plates were returned to the incubator for a further 68 hours. 25 μL of CellTiter-Glo (Promega) was added to each well and the plates were incubated on the bench for 15 minutes. Luminescence was then read using a CLIPR CCD camera (Molecular Devices).
Background: Cellular ATP, detected with luciferase, serves as a proxy for viable cell number.
Consider `O=C(NCC(O)c1ccccc1Cl)c1ccc(F)c(NC(=O)c2cnc3ccccn23)c1` (centres unmarked) [F120, N-(5-{[2-(2-chlorophenyl)-2-hydroxyethyl]carbamoyl}-2-fluorophenyl)imidazo[1,2-a]pyridine-3-carboxamide], for which the IC50 (in general, the point on the concentration scale where inhibition reaches its midpoint) stood at 36 nM.

Regarding `COC[C@H](NC(=O)c1ccc(F)c(NC(=O)c2cnc3ccccn23)c1)[C@@H](O)c1ccccc1` [F117, N-(2-fluoro-5-{[(1S,2S)-1-hydroxy-3-methoxy-1-phenylpropan-2-yl]carbamoyl}phenyl)imidazo[1,2-a]pyridine-3-carboxamide], the IC50 came to 13 nM. The same measure, in the same setting: to `Cn1nccc1-c1ccn2c(C(=O)Nc3cc(C(=O)N[C@@H](CO)[C@@H](O)c4ccccc4)ccc3F)cnc2c1` [F128, N-(5-{[(1S,2S)-1,3-dihydroxy-1-phenylpropan-2-yl]carbamoyl}-2-fluorophenyl)-7-(1-methyl-1H-pyrazol-5-yl)imidazo[1,2-a]pyridine-3-carboxamide] belongs 56 nM. Same read-out and setting: for `O=C(N[C@@H]1CCCC[C@H]1CO)c1ccc(F)c(NC(=O)c2cnc3ccccn23)c1` [F24, N-(2-fluoro-5-{[(1R,2R)-2-(hydroxymethyl)cyclohexyl]carbamoyl}phenyl)imidazo[1,2-a]pyridine-3-carboxamide] the value was 94 nM; for `CN(C)CCCOc1ccc(-c2ccn3c(C(=O)Nc4cc(C(=O)N[C@H]5Cc6ccccc6[C@H]5O)ccc4F)cnc3c2)cn1` (stereo in doubt) [F32, 7-{6-[3-(dimethylamino)propoxy]pyridin-3-yl}-N-(2-fluoro-5-{[(1R,2S)-1-hydroxy-2,3-dihydro-1H-inden-2-yl]carbamoyl}phenyl)imidazo[1,2-a]pyridine-3-carboxamide], 44 nM; for `COC[C@H](NC(=O)c1ccc(F)c(NC(=O)c2cnc3cc(-c4ccnn4C)ccn23)c1)[C@@H](O)c1ccccc1` [F129, N-(2-fluoro-5-{[(1S,2S)-1-hydroxy-3-methoxy-1-phenylpropan-2-yl]carbamoyl}phenyl)-7-(1-methyl-1H-pyrazol-5-yl)imidazo[1,2-a]pyridine-3-carboxamide], 14 nM. `O=C(N[C@H]1CCSC[C@H]1O)c1ccc(F)c(NC(=O)c2cnc3ccccn23)c1` [F125, N-(2-fluoro-5-{[(3S,4S)-3-hydroxythian-4-yl]carbamoyl}phenyl)imidazo[1,2-a]pyridine-3-carboxamide]: the IC50 was 98 nM.

`Cc1ccc(C(=O)N[C@H]2c3ccccc3C[C@H]2O)cc1NC(=O)c1cnc2ccccn12` [F21, N-(5-{[(1S,2R)-2-hydroxy-2,3-dihydro-1H-inden-1-yl]carbamoyl}-2-methylphenyl)imidazo[1,2-a]pyridine-3-carboxamide]: the 50% inhibitory concentration (IC50) was determined as 95 nM.

With `Cc1ccc(C(=O)N[C@@H]2c3ccccc3C[C@@H]2O)cc1NC(=O)c1cnc2ccccn12` [F20, N-(5-{[(1R,2S)-2-hydroxy-2,3-dihydro-1H-inden-1-yl]carbamoyl}-2-methylphenyl)imidazo[1,2-a]pyridine-3-carboxamide], the IC50 is 29 nM. In the case of `Cc1ccc2ncc(C(=O)Nc3cc(C(=O)N[C@@H]4c5cc(Cl)ccc5C[C@@H]4O)ccc3F)n2c1` (stereo in doubt) [F33, N-(5-{[(1R,2S)-6-chloro-2-hydroxy-2,3-dihydro-1H-inden-1-yl]carbamoyl}-2-fluorophenyl)-6-methylimidazo[1,2-a]pyridine-3-carboxamide], the IC50 was determined as 163 nM.

The same experiment, now with this note: Table 2; Rat A10 cells, recombinant rat PDGF-BB, CellTiter-Glo after 68 hours.
As to `O=C(N[C@@H]1c2ccccc2C[C@@H]1O)c1ccc(F)c(NC(=O)c2cnc3cc(C(F)(F)F)ccn23)c1` (stereo in doubt) [F40, N-(2-fluoro-5-{[(1R,2S)-2-hydroxy-2,3-dihydro-1H-inden-1-yl]carbamoyl}phenyl)-7-(trifluoromethyl)imidazo[1,2-a]pyridine-3-carboxamide], the IC50 is 261 nM. For `O=C(NCC(O)C(F)(F)F)c1ccc(F)c(NC(=O)c2cnc3ccccn23)c1` (centres unmarked) [F63, N-{2-fluoro-5-[(3,3,3-trifluoro-2-hydroxypropyl)carbamoyl]phenyl}imidazo[1,2-a]pyridine-3-carboxamide], the IC50 turned out to be 1060 nM.

As for `O=C(NCC1(O)CCC1)c1cccc(NC(=O)c2cnc3ccccn23)c1` [F73, N-(3-{[(1-hydroxycyclobutyl)methyl]carbamoyl}phenyl)imidazo[1,2-a]pyridine-3-carboxamide], the IC50 is 3270 nM. As to `C[C@@H](CO)NC(=O)c1cccc(NC(=O)c2cnc3ccccn23)c1` [F78, N-(3-{[(2S)-1-hydroxypropan-2-yl]carbamoyl}phenyl)imidazo[1,2-a]pyridine-3-carboxamide], the IC50 was greater than 10000 nM.

For `O=C(N[C@H]1Cc2ccccc2[C@H]1O)c1ccc(F)c(NC(=O)c2cnc3ccccn23)c1` (stereo in doubt) [F46, N-(2-fluoro-5-{[(1R,2S)-1-hydroxy-2,3-dihydro-1H-inden-2-yl]carbamoyl}phenyl)imidazo[1,2-a]pyridine-3-carboxamide], the IC50 was determined as 348 nM. `COc1ccc2c(c1)[C@@H](NC(=O)c1ccc(F)c(NC(=O)c3cnc4ccc(C)cn34)c1)[C@@H](O)C2` (stereo in doubt) [F45, N-(2-fluoro-5-{[(1R,2S)-2-hydroxy-6-methoxy-2,3-dihydro-1H-inden-1-yl]carbamoyl}phenyl)-6-methylimidazo[1,2-a]pyridine-3-carboxamide]: the IC50 was determined as 345 nM. In the case of `O=C(N[C@H]1c2ccccc2C[C@H]1O)c1ccc(F)c(NC(=O)c2cnc3cc(F)ccn23)c1` [F60, 7-fluoro-N-(2-fluoro-5-{[(1S,2R)-2-hydroxy-2,3-dihydro-1H-inden-1-yl]carbamoyl}phenyl)imidazo[1,2-a]pyridine-3-carboxamide], the IC50 was determined as 609 nM. For `O=C(N[C@H](CO)[C@H](O)c1ccccc1)c1ccc(F)c(NC(=O)c2cnc3ccccn23)c1` [F107, N-(5-{[(1R,2R)-1,3-dihydroxy-1-phenylpropan-2-yl]carbamoyl}-2-fluorophenyl)imidazo[1,2-a]pyridine-3-carboxamide], the IC50 stood at 265 nM. On the same count and under the same terms, for `O=C(N[C@H](CO)CC1CCCCC1)c1cccc(NC(=O)c2cnc3ccccn23)c1` [F48, N-(3-{[(2S)-1-cyclohexyl-3-hydroxypropan-2-yl]carbamoyl}phenyl)imidazo[1,2-a]pyridine-3-carboxamide] the value was 363 nM; for `CC(C)(CO)NC(=O)c1ccc(F)c(NC(=O)c2cnc3ccccn23)c1` [F98, N-{2-fluoro-5-[(1-hydroxy-2-methylpropan-2-yl)carbamoyl]phenyl}imidazo[1,2-a]pyridine-3-carboxamide], greater than 10000 nM; for `O=C(NC12C[C@@H]3C[C@@H](CC(O)(C3)C1)C2)c1ccc(F)c(NC(=O)c2cnc3ccccn23)c1` [F52, N-(2-fluoro-5-{[(5R,7S)-3-hydroxyadamantan-1-yl]carbamoyl}phenyl)imidazo[1,2-a]pyridine-3-carboxamide], 422 nM. Still for that read-out and setting: to `O=C(NC1CCCC[C@H]1CO)c1ccc(F)c(NC(=O)c2cnc3ccccn23)c1` (stereo in doubt) [F43, N-(2-fluoro-5-{[(1R,2R)-2-(hydroxymethyl)cyclohexyl]carbamoyl}phenyl)imidazo[1,2-a]pyridine-3-carboxamide] belongs 294 nM; to `O=C(N[C@@H]1CCCC(F)(F)[C@H]1O)c1ccc(F)c(NC(=O)c2cnc3ccccn23)c1` [F99, N-(5-{[(1R,2S)-3,3-difluoro-2-hydroxycyclohexyl]carbamoyl}-2-fluorophenyl)imidazo[1,2-a]pyridine-3-carboxamide], 325 nM.

Consider `O=C(N[C@H]1CCCC[C@@H]1CO)c1ccc(F)c(NC(=O)c2cnc3ccccn23)c1` [F51, N-(2-fluoro-5-{[(1S,2S)-2-(hydroxymethyl)cyclohexyl]carbamoyl}phenyl)imidazo[1,2-a]pyridine-3-carboxamide], for which the IC50 was determined as 387 nM. In the case of `O=C(NCC1(CO)CCCC1)c1ccc(F)c(NC(=O)c2cnc3ccccn23)c1` [F90, N-(2-fluoro-5-({[1-(hydroxymethyl)cyclopentyl]methyl}carbamoyl)phenyl]imidazo[1,2-a]pyridine-3-carboxamide], the half-inhibitory concentration (IC50) is 1760 nM. Regarding `CSc1ccc([C@H](O)[C@H](CO)NC(=O)c2ccc(F)c(NC(=O)c3cnc4ccccn34)c2)cc1` [F92, N-(5-{[(1S,2S)-1,3-dihydroxy-1-[4-(methylsulfanyl)phenyl]propan-2-yl]carbamoyl}-2-fluorophenyl)imidazo[1,2-a]pyridine-3-carboxamide], the IC50 came to 283 nM.

In the case of `O=C(N[C@@H]1c2ccccc2C[C@@H]1O)c1ccc(F)c(NC(=O)c2cnc3ccc(-n4ccnc4)cn23)c1` (stereo in doubt) [F72, N-(2-fluoro-5-{[(1R,2S)-2-hydroxy-2,3-dihydro-1H-inden-1-yl]carbamoyl}phenyl)-6-(1H-imidazol-1-yl)imidazo[1,2-a]pyridine-3-carboxamide], the IC50 was determined as 2860 nM.

On to `CC(C)(O)[C@@H]1CCCC[C@@H]1NC(=O)c1ccc(F)c(NC(=O)c2cnc3ccccn23)c1` [F106, N-(2-fluoro-5-{[(1S,2R)-2-(2-hydroxypropan-2-yl)cyclohexyl]carbamoyl}phenyl)imidazo[1,2-a]pyridine-3-carboxamide], for which the concentration for half-maximal inhibition (IC50) is 813 nM. Turning to `CN(C)CCCOc1ccc(-c2ccn3c(C(=O)Nc4cc(C(=O)N[C@@H]5Cc6ccccc6[C@@H]5O)ccc4F)cnc3c2)cn1` [F39, 7-{6-[3-(dimethylamino)propoxy]pyridin-3-yl}-N-(2-fluoro-5-{[(1S,2R)-1-hydroxy-2,3-dihydro-1H-inden-2-yl]carbamoyl}phenyl)imidazo[1,2-a]pyridine-3-carboxamide], the IC50 amounted to 252 nM.
